Results as given in US20210261475A1, “UREA-BASED COMPOSITION COMPRISING ELEMENTAL SULPHUR AND METHOD FOR THE MANUFACTURE THEREOF” (YARA INTERNATIONAL ASA, priority 2018, published 2021).
“Also recorded” adds a separate entry of the source.

What was measured:
Format in all cases: physicochemical
[1] = Volatilization measurements (ammonia release, 2 L diffusion kit, Draeger tube); details: YaraVera Amidas product comprising 462 ppm nBTPT, treated with stabilizer (FIG. 1, Table 1)
Description: Through the lid, a […] tube is placed for the measurement of vol % ammonia. The […] tube turns from yellow to bleu/purple when ammonia is absorbed by the tube. The amount of vol % ammonia released can be followed in time. Experiment 1 defines the problem.

pH of MgSO4 grades = assay: pH of MgSO4 grades
[2] = nBTPT stability on YaraVera Amidas (UAS) product during storage, HPLC analysis of nBTPT content
Experimental: For lab scale experiments, 1.2 kg of solid fertilizer material was added to a lab scale drum. […] A residence time of 10 minutes was applied and the rotating speed of the drum was consequently the same in each experiment. […] Before use, the moisture-repellent coating was preheated to 80° C. Larger scale experiments with amounts up to 40 kg of fertilizer material were performed in a concrete mixer. The samples were stored under several conditions, dependent on the type of samples: • Bagged at room temperature (18-25° C.) • Bagged at 40° C. • Open to air at room temperature (18-25° C.) […]

## [O]=[Ca] [CaO, calcium oxide]
[1]
  Ammonia release: producing ammonia

## O=S(=O)([O-])[O-].[Mg+2] [MgSO4 99.5%]
pH of MgSO4 grades
  pH: 8.5

## O=S(=O)([O-])[O-].[Ca+2] [CaSO4]
[1]
  Ammonia release: no ammonia release

## O=S(=O)([O-])[O-].[Na+].[Na+] [Na2SO4, reference compound]
[2]; YaraVera Amidas with 462 ppm nBTPT, open plastic containers at room temperature for 21 days (FIG. 3)
  Stability of nBTPT (stabilizing effect): negative effect on the stability of nBTPT

## O=S(=O)([O-])[O-].[Mg+2] [MgSO4 99.999%]
pH of MgSO4 grades
  pH: 6.1

## O=S(=O)([O-])[O-].[Mg+2] [MgSO4, magnesium sulphate]
[1]
  Ammonia release: no ammonia release; also recorded: no ammonia is generated
[2]; UAS with 462 ppm nBTPT, open to air at room temperature 40 days (FIG. 2A) and in bags at 40° C. 8 days (FIG. 2B)
  Stability of nBTPT (stabilizing effect): comparable with the effect of the prior art compound (CaO)
[2]; more than 1 weight % magnesium sulphate in the composition
  Stabilizing effect: did not produce a proportionally better stabilizing effect

## [O]=[Mg] [MgO, magnesium oxide, reference compound]
[1]
  Ammonia release: producing ammonia
[2]; YaraVera Amidas with 462 ppm nBTPT, MgSO4/MgO combinations (FIG. 4)
  Stability of nBTPT (stabilizing effect): more effective than CaO
